How the values were obtained:
velvetleaf = assay: Test A pre-/postemergence herbicide test; assay type: in vivo, Abutilon theophrasti; settings: for Velvetleaf plant response rating: Preemergence, visual rating on 0 to 100 scale (0 no effect, 100 complete control)
Summary of the method: (§1)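 Planted in loam–sand blend; treated the same day preemergence by directed soil spray, while separately grown plants at one- to two-leaf stage got postemergence spray. Compared visually with untreated controls after approximately 10 days; 100 means complete control.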

chickweed = assay: Test C postemergence herbicide test; assay type: in vivo, Stellaria media
Excerpt: At the same time, plants selected from these crop and weed species and also barley (winter barley, Hordeum vulgare), […]), chickweed (common chickweed, Stellaria media), deadnettle (henbit deadnettle, Lamium amplexicaule), and canarygrass (littleseed canarygrass, Phalaris minor) were planted in pots containing Redi-Earth® planting medium (Scotts Company, 14111 Scottslawn Road, Marysville, Ohio 43041) comprising spaghnum peat moss, vermiculite, wetting agent and starter nutrients and treated with postemergence applications of test chemicals formulated in the same manner. Plants ranged in height from 2 to 18 cm (1- to 4-leaf stage) for postemergence treatments. Treated plants and controls were maintained in a greenhouse for 13 to 15 days, after which time all species were compared to controls and visually evaluated. Plant response ratings, summarized in Table C, are based on a scale of 0 to 100 where 0 is no effect and 100 is complete control. A dash (-) response means no test result.

crabgrass, large = assay: Test A pre-/postemergence herbicide test; assay type: in vivo, Digitaria sanguinalis; settings: for Crabgrass, Large plant response rating: Preemergence, visual rating on 0 to 100 scale (0 no effect, 100 complete control)
Summary of the method: as §1

morningglory = assay: Test A pre-/postemergence herbicide test; assay type: in vivo, Ipomoea spp.; settings: for Morningglory plant response rating: Preemergence, visual rating on 0 to 100 scale (0 no effect, 100 complete control)
Summary of the method: as §1

rice = assay: Test C flooded paddy test; assay type: in vivo, Oryza sativa; settings: Flood, scale of 0 to 100 where 0 is no effect and 100 is complete control, 13 to 15 days
Summary of the method: (§2)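 Plants at the 2-leaf stage in pots flooded to 3 cm were treated by applying compound directly to the paddy water, with depth held throughout. After 13 to 15 days in a greenhouse, response was rated visually against controls on a 0 (no effect) to 100 (complete control) scale.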

ragweed = assay: Test A pre-/postemergence herbicide test; assay type: in vivo, Ambrosia elatior
Summary of the method: as §1

sedge, umbrella = assay: Test C flooded paddy test; assay type: in vivo, Cyperus difformis; settings: Flood, scale of 0 to 100 where 0 is no effect and 100 is complete control, 13 to 15 days
Summary of the method: as §2

ryegrass, Italian = assay: Test A pre-/postemergence herbicide test; assay type: in vivo, Lolium multiflorum
Summary of the method: as §1

galium = assay: Test A postemergence herbicide test; assay type: in vivo, Galium aparine
Summary of the method: (§3)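 Blackgrass and galium grown in pots of loam soil–sand blend, treated postemergence at 2–10 cm height, one- to two-leaf stage. Plants kept in greenhouse ~10 days, then visually rated for injury against untreated controls on a 0–100 scale (0 no effect, 100 complete control).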

barnyardgrass = assay: Test C flooded paddy test; assay type: in vivo, Echinochloa crus-galli; settings: Flood, scale of 0 to 100 where 0 is no effect and 100 is complete control, 13 to 15 days
Summary of the method: as §2

kochia = assay: Test A pre-/postemergence herbicide test; assay type: in vivo, Kochia scoparia
Summary of the method: as §1

blackgrass = assay: Test A postemergence herbicide test; assay type: in vivo, Alopecurus myosuroides
Summary of the method: as §3

[1] = Postemergence, 1000 g ai/ha, 0 to 100 scale (0 no effect, 100 complete control)
[2] = preemergence, 1000 g ai/ha, 0 to 100 scale
[3] = 31 g ai/ha, scale 0 (no effect) to 100 (complete control)
[4] = 62 g ai/ha, scale 0 to 100 (0 no effect, 100 complete control)
[5] = 125 g ai/ha, scale 0 to 100 (0 no effect, 100 complete control)
[6] = 250 g ai/ha, scale 0 to 100 (0 no effect, 100 complete control)
[7] = Postemergence, 125 g ai/ha, 0 to 100 scale, 0 no effect, 100 complete control
[8] = Postemergence, 500 g ai/ha, 0 to 100 scale (0 no effect, 100 complete control)
[9] = preemergence, 500 g ai/ha, 0 to 100 scale
[10] = Postemergence, 125 g ai/ha, visual rating on 0 to 100 scale (0 no effect, 100 complete control), approx. 10 days
[11] = Preemergence, 125 g ai/ha, 0 to 100 scale where 0 is no effect and 100 is complete control
[12] = Preemergence, 500 g ai/ha, visual rating on 0 to 100 scale (0 no effect, 100 complete control)
[13] = 125 g ai/ha, visual rating on 0 to 100 scale (0 no effect, 100 complete control), approx. 10 days
[14] = 500 g ai/ha, 0 to 100 scale (0 no effect, 100 complete control)

Cc1c(F)cccc1NC(=O)C1C(=O)NCC1c1ccc(F)c(F)c1 (racemic) [Compound 106]
Plant response rating, Velvetleaf (velvetleaf; [1]): 40
Plant response rating, Velvetleaf (velvetleaf; [2]): 0
Plant response rating, Chickweed (chickweed; [3]): 0
Plant response rating, Chickweed (chickweed; [4]): 0
Plant response rating, Chickweed (chickweed; [5]): 5
Plant response rating, Chickweed (chickweed; [6]): 30
Plant response rating, Crabgrass, Large (crabgrass, large; [1]): 90
Plant response rating, Crabgrass, Large (crabgrass, large; [2]): 90
Plant response rating, Morningglory (morningglory; [1]): 20
Plant response rating, Morningglory (morningglory; [2]): 0

O=C1NCC(c2cc(F)c(F)c(F)c2)C1C(=O)Nc1cccc(F)c1F (centres unmarked) [Compound 48]
Plant response rating, Velvetleaf (velvetleaf; [7]): 0
Plant response rating, Velvetleaf (velvetleaf; [8]): 20
Velvetleaf plant response rating (velvetleaf; 125 g ai/ha): 0
Plant response rating, Velvetleaf (velvetleaf; [9]): 0
Plant response rating, Chickweed (chickweed; 16 g ai/ha, scale 0 to 100 (0 no effect, 100 complete control)): 0
Plant response rating, Chickweed (chickweed; [3]): 0
Plant response rating, Chickweed (chickweed; [4]): 30
Plant response rating, Chickweed (chickweed; [5]): 30
Plant response rating, Crabgrass, Large (crabgrass, large; [7]): 80
Plant response rating, Crabgrass, Large (crabgrass, large; [8]): 80
Crabgrass, Large plant response rating (crabgrass, large; 125 g ai/ha): 90
Plant response rating, Crabgrass, Large (crabgrass, large; [9]): 90
Plant response rating, Morningglory (morningglory; [7]): 0
Plant response rating, Morningglory (morningglory; [8]): 20
Morningglory plant response rating (morningglory; 125 g ai/ha): 0
Plant response rating, Morningglory (morningglory; [9]): 0

O=C1NCC(c2cc(F)c(F)cc2F)C1C(=O)Nc1cccc(F)c1F (centres unmarked) [Compound 50]
Plant response rating, Velvetleaf (velvetleaf; [7]): 0
Plant response rating, Velvetleaf (velvetleaf; [8]): 0
Velvetleaf plant response rating (velvetleaf; 125 g ai/ha): 0
Plant response rating, Velvetleaf (velvetleaf; [9]): 0
Plant response rating, Chickweed (chickweed; [3]): 0
Plant response rating, Chickweed (chickweed; [4]): 0
Plant response rating, Chickweed (chickweed; [5]): 0
Plant response rating, Chickweed (chickweed; [6]): 5
Plant response rating, Crabgrass, Large (crabgrass, large; [7]): 80
Plant response rating, Crabgrass, Large (crabgrass, large; [8]): 80
Crabgrass, Large plant response rating (crabgrass, large; 125 g ai/ha): 90
Plant response rating, Crabgrass, Large (crabgrass, large; [9]): 90
Plant response rating, Morningglory (morningglory; [7]): 0
Plant response rating, Morningglory (morningglory; [8]): 0
Morningglory plant response rating (morningglory; 125 g ai/ha): 0
Plant response rating, Morningglory (morningglory; [9]): 0

O=C1NCC(c2ccc(F)c(Cl)c2)C1C(=O)Nc1ccccc1F (centres unmarked) [Compound 60]
Plant response rating, Velvetleaf (velvetleaf; [7]): 0
Plant response rating, Velvetleaf (velvetleaf; [8]): 0
Velvetleaf plant response rating (velvetleaf; 125 g ai/ha): 0
Plant response rating, Velvetleaf (velvetleaf; [9]): 0
Plant response rating, Chickweed (chickweed; [3]): 0
Plant response rating, Chickweed (chickweed; [4]): 10
Plant response rating, Chickweed (chickweed; [5]): 30
Plant response rating, Crabgrass, Large (crabgrass, large; [7]): 80
Plant response rating, Crabgrass, Large (crabgrass, large; [8]): 90
Crabgrass, Large plant response rating (crabgrass, large; 125 g ai/ha): 90
Plant response rating, Crabgrass, Large (crabgrass, large; [9]): 90
Plant response rating, Morningglory (morningglory; [7]): 0
Plant response rating, Morningglory (morningglory; [8]): 0
Morningglory plant response rating (morningglory; 125 g ai/ha): 0
Plant response rating, Morningglory (morningglory; [9]): 0

CN1CC(c2ccc(F)c(F)c2)C(C(=O)Nc2cccc(F)c2F)C1=O (centres unmarked) [Compound 303]
Plant response rating, Rice (rice; 31 g ai/ha): 0
Plant response rating, Rice (rice; 62 g ai/ha): 0
Plant response rating, Rice (rice; 125 g ai/ha): 0
Plant response rating, Rice (rice; 250 g ai/ha): 0
Plant response rating, Ragweed (ragweed; [10]): 20
Plant response rating, Ragweed (ragweed; [8]): 40
Plant response rating, Ragweed (ragweed; [11]): 0
Plant response rating, Sedge, Umbrella (sedge, umbrella; 31 g ai/ha): 0
Plant response rating, Sedge, Umbrella (sedge, umbrella; 62 g ai/ha): 0
Plant response rating, Sedge, Umbrella (sedge, umbrella; 125 g ai/ha): 0
Plant response rating, Sedge, Umbrella (sedge, umbrella; 250 g ai/ha): 0
Plant response rating, Ryegrass, Italian (ryegrass, Italian; [10]): 40
Plant response rating, Ryegrass, Italian (ryegrass, Italian; [8]): 60
Plant response rating, Ryegrass, Italian (ryegrass, Italian; [11]): 30
Ryegrass, Italian plant response rating (ryegrass, Italian; [12]): 40
Plant response rating, Galium (galium; [13]): 60
Plant response rating, Galium (galium; [14]): 70
Plant response rating, Barnyardgrass (barnyardgrass; 31 g ai/ha): 0
Plant response rating, Barnyardgrass (barnyardgrass; 62 g ai/ha): 20
Plant response rating, Barnyardgrass (barnyardgrass; 125 g ai/ha): 60
Plant response rating, Barnyardgrass (barnyardgrass; 250 g ai/ha): 70
Plant response rating, Kochia (kochia; [10]): 50
Plant response rating, Kochia (kochia; [8]): 80
Plant response rating, Kochia (kochia; [11]): 70
Kochia plant response rating (kochia; [12]): 80
Plant response rating, Blackgrass (blackgrass; [13]): 60
Plant response rating, Blackgrass (blackgrass; [14]): 70

CC(C)c1cccc(C2CNC(=O)C2C(=O)Nc2ccccc2F)c1 (centres unmarked) [Compound 318]
Plant response rating, Rice (rice; 31 g ai/ha): 0
Plant response rating, Rice (rice; 62 g ai/ha): 0
Plant response rating, Rice (rice; 125 g ai/ha): 10
Plant response rating, Rice (rice; 250 g ai/ha): 15
Plant response rating, Ragweed (ragweed; [10]): 0
Plant response rating, Ragweed (ragweed; [8]): 30
Plant response rating, Ragweed (ragweed; [11]): 20
Ragweed plant response rating (ragweed; [12]): 40
Plant response rating, Sedge, Umbrella (sedge, umbrella; 31 g ai/ha): 0
Plant response rating, Sedge, Umbrella (sedge, umbrella; 62 g ai/ha): 0
Plant response rating, Sedge, Umbrella (sedge, umbrella; 125 g ai/ha): 0
Plant response rating, Sedge, Umbrella (sedge, umbrella; 250 g ai/ha): 0
Plant response rating, Ryegrass, Italian (ryegrass, Italian; [10]): 20
Plant response rating, Ryegrass, Italian (ryegrass, Italian; [8]): 40
Plant response rating, Ryegrass, Italian (ryegrass, Italian; [11]): 20
Ryegrass, Italian plant response rating (ryegrass, Italian; [12]): 60
Plant response rating, Galium (galium; [13]): 30
Plant response rating, Galium (galium; [14]): 40
Plant response rating, Barnyardgrass (barnyardgrass; 31 g ai/ha): 20
Plant response rating, Barnyardgrass (barnyardgrass; 62 g ai/ha): 30
Plant response rating, Barnyardgrass (barnyardgrass; 125 g ai/ha): 60
Plant response rating, Barnyardgrass (barnyardgrass; 250 g ai/ha): 70
Plant response rating, Kochia (kochia; [10]): 20
Plant response rating, Kochia (kochia; [8]): 30
Plant response rating, Kochia (kochia; [11]): 20
Kochia plant response rating (kochia; [12]): 70
Plant response rating, Blackgrass (blackgrass; [13]): 30
Plant response rating, Blackgrass (blackgrass; [14]): 40

O=C1NCC(c2cccc(OC(F)F)c2)C1C(=O)Nc1ccccc1F (centres unmarked) [Compound 323]
Plant response rating, Rice (rice; 31 g ai/ha): 0
Plant response rating, Rice (rice; 62 g ai/ha): 0
Plant response rating, Rice (rice; 125 g ai/ha): 0
Plant response rating, Rice (rice; 250 g ai/ha): 30
Plant response rating, Ragweed (ragweed; [10]): 0
Plant response rating, Ragweed (ragweed; [8]): 20
Plant response rating, Ragweed (ragweed; [11]): 20
Ragweed plant response rating (ragweed; [12]): 80
Plant response rating, Sedge, Umbrella (sedge, umbrella; 31 g ai/ha): 0
Plant response rating, Sedge, Umbrella (sedge, umbrella; 62 g ai/ha): 0
Plant response rating, Sedge, Umbrella (sedge, umbrella; 125 g ai/ha): 0
Plant response rating, Sedge, Umbrella (sedge, umbrella; 250 g ai/ha): 0
Plant response rating, Ryegrass, Italian (ryegrass, Italian; [10]): 30
Plant response rating, Ryegrass, Italian (ryegrass, Italian; [8]): 30
Plant response rating, Ryegrass, Italian (ryegrass, Italian; [11]): 20
Ryegrass, Italian plant response rating (ryegrass, Italian; [12]): 30
Plant response rating, Galium (galium; [13]): 40
Plant response rating, Galium (galium; [14]): 60
Plant response rating, Barnyardgrass (barnyardgrass; 31 g ai/ha): 25
Plant response rating, Barnyardgrass (barnyardgrass; 62 g ai/ha): 45
Plant response rating, Barnyardgrass (barnyardgrass; 125 g ai/ha): 50
Plant response rating, Barnyardgrass (barnyardgrass; 250 g ai/ha): 65
Plant response rating, Kochia (kochia; [10]): 40
Plant response rating, Kochia (kochia; [8]): 90
Plant response rating, Kochia (kochia; [11]): 50
Kochia plant response rating (kochia; [12]): 80
Plant response rating, Blackgrass (blackgrass; [13]): 40
Plant response rating, Blackgrass (blackgrass; [14]): 60

Source: patent publication US10294202B2, “Pyrrolidinones as herbicides” (FMC Corporation, priority 2013, dated 2019)
